Results as given in article PMC9220178, “Preclinical Characterization of Antioxidant Quinolyl Nitrone QN23 as a New Candidate for the Treatment of Ischemic Stroke” (Antioxidants, 2022).
Like-named read-outs stand apart in the source and are kept apart here.

Legend:
[1] = Toxicokinetics study, plasma concentration by LC-MS/MS after single i.v. bolus; assay type: in vivo, rat; conditions: for Clast / Cmax / AUC(0-t) / C0 / clearance / Vd / k el / half-life: female Sprague Dawley rats, plasma, mean ± SE, n = 6; for Cmax / AUC(0-t) / C0 / clearance / Vd / k el / half-life: rat, iv; for AUC(0-t): read-out: AUC0–8h; for C0: read-out: C0 (initial concentration); for clearance: read-out: Cl (clearance) (converted); for Vd: read-out: Vd (volume of distribution); for k el: read-out: kel (elimination constant) (converted); for half-life: read-out: t1/2 (half-life) (converted)
Experimental: For the toxicokinetics study of QN23, female Sprague Dawley rats (9–10 weeks, Envigo, Barcelona, Spain) were divided into three groups (n = 6 per group) and treated intravenously with different concentrations of QN23 (2.0, 6.0, and 18 mg/kg), in vehicle solution (ethanol/polyethylene glycol 400/saline, 1:200:60 v/v), as a single bolus of 1 mL injection at 3 mL/min. Samples of plasma were taken at 0.25, 0.5, 1, 2, 4, and 8 h after the first administration (on day 1) and QN23 concentration was determined by liquid chromatography–mass spectrometry in tandem (LC-MS/MS) analysis for pharmacokinetic study. For the determination of the toxicokinetic parameters, a noncompartmental analysis was performed using the Phoenix 64 WinNonlin software (version 8.0, Certara, Sant Louis, MO, USA). This study was carried out by Swiss BioQuant AG (Reinach, Switzerland). For the toxicity study of QN23, rats were divided into four groups (n = 5 per group) and treated intravenously with vehicle (control group) or different concentrations of QN23 (2.0, 6.0, and 18 mg/kg) as a single bolus injection in a 4-day repeated dose as described above. Pathology analyses, comprising hematology, clinical biochemistry, and coagulation, were performed, and heart, kidney, liver, and spleen necropsies were collected for macroscopic analysis. This study was carried out by Vivotecnia Research S.L (Madrid, Spain).

[2] = test system: male Wistar rats, transient middle cerebral artery occlusion (tMCAO); assay: Infarct and edema volume (TTC staining) in transient focal cerebral ischemia (tMCAO); assay type: in vivo, rat; conditions: 48 h after tMCAO
Experimental: For the transient focal cerebral ischemia experimental model we used 12-week-old male Wistar rats (300–350 g, Charles River), housed under standard conditions with food and water ad libitum. The animals were anesthetized by an intraperitoneal injection of a mixture of 100 mg/kg ketamine, 5 mg/kg diazepam, and 0.3 mg/kg atropine. Anesthesia was maintained during the surgical procedure by inhalation of 1–1.5% sevoflurane in 80% medicinal air plus 20% O2. For the transient occlusion of the right middle cerebral artery (tMCAO, 60 min), we followed the intraluminal suture procedure as originally described, adapted to our experimental setup. The procedure included continuous monitoring of cortical perfusion (CP, by Laser-Doppler flowmetry), arterial blood pressure, and core temperature, and discontinuous measurement of glycemia levels during preischemia (basal), ischemia, and reperfusion stages. Buprenorphine (subcutaneous, 0.05 mg/kg) was used as an analgesic. Forty-eight hours after the ischemic insult, the animals were euthanized by intracardiac injection of potassium chloride (200 mg/kg) under deep anesthesia, and the brains were obtained.
A power analysis (see above) provided a sample size of 6 subjects per group. A total of 35 animals was used in this study. […]
Brain infarct volume was determined by the 2,3,5-triphenyltetrazolium chloride (TTC; Sigma-Aldrich, Merck KGaA, Darmstadt, Germany) vital staining method, followed by morphometric analysis by a researcher blind to the treatment allocation. […] In order to correct for the influence of edema, the infarcted area was calculated as follows: corrected infarct area = infarct area × (contralateral hemisphere area / ipsilateral hemisphere area). The corrected infarct area was measured on both the anterior and the posterior sides of each slice and averaged; the corrected infarct volume was calculated by multiplying the average corrected infarct area by the thickness of the slice (2 mm), and the total corrected infarct volume by adding up the corrected infarct volume of the seven slices. […]

In the case of COc1ccc2nc(Cl)c(/C=[N+](\[O-])C(C)(C)C)cc2c1 [QN23, (Z)-N-tert-Butyl-1-(2-chloro-6-methoxyquinolin-3-yl)methanimine Oxide], the Clast ([1]; 2.0 mg/kg single i.v. bolus) is reported as 30 ± 8 ng/mL, the “Latest time after injection with quantifiable plasma concentration” value ([1]; 6 mg/kg single i.v. bolus) is reported as at most 4 h and the Clast ([1]; 6.0 mg/kg single i.v. bolus) is reported as 34 ± 5 ng/mL. For the same molecule, the “Last concentration found as share of the initial (and maximal) detected concentration” value ([1]; 18 mg/kg single i.v. bolus) was “approximately 1%”, the Clast ([1]; 18 mg/kg single i.v. bolus) was 49 ± 5 ng/mL and the “AUC0–8h versus dose” value ([1]; 2.0, 6.0 and 18 mg/kg single i.v. bolus) was “increased proportional to the dose administered”. For the same molecule, the Cmax ([1]; 2.0 mg/kg single i.v. bolus) was 161 ± 86 ng/mL, the AUC(0-t) ([1]; 2.0 mg/kg single i.v. bolus) was 160 ± 61 ng·h/mL and the C0 ([1]; 2.0 mg/kg single i.v. bolus) was 540 ± 186 ng/mL. It also gave a Cmax ([1]; 6.0 mg/kg single i.v. bolus) of 1090 ± 371 ng/mL, an AUC(0-t) ([1]; 6.0 mg/kg single i.v. bolus) of 1010 ± 355 ng·h/mL and a C0 ([1]; 6.0 mg/kg single i.v. bolus) of 2170 ± 661 ng/mL. It also gave a Cmax ([1]; 18 mg/kg single i.v. bolus) of 2570 ± 1200 ng/mL, an AUC(0-t) ([1]; 18 mg/kg single i.v. bolus) of 2960 ± 1290 ng·h/mL and a C0 ([1]; 18 mg/kg single i.v. bolus) of 4350 ± 1860 ng/mL. For the same molecule, the clearance ([1]; 2.0 mg/kg single i.v. bolus) was 73.3 mL/min, the Vd ([1]; 2.0 mg/kg single i.v. bolus) was 1.26 ± 0.434 L and the k el ([1]; 2.0 mg/kg single i.v. bolus) was 0.00118 s⁻¹. For the same molecule, the half-life ([1]; 2.0 mg/kg single i.v. bolus) was 9.6 ± 0.6 min, the clearance ([1]; 6.0 mg/kg single i.v. bolus) was 56.7 mL/min and the Vd ([1]; 6.0 mg/kg single i.v. bolus) was 1.66 ± 0.584 L. For the same molecule, the k el ([1]; 6.0 mg/kg single i.v. bolus) was 0.000931 s⁻¹, the half-life ([1]; 6.0 mg/kg single i.v. bolus) was 14.4 ± 1.8 min and the clearance ([1]; 18 mg/kg single i.v. bolus) was 78.1 mL/min. The Vd ([1]; 18 mg/kg single i.v. bolus) was 20.4 ± 12.3 L, the k el ([1]; 18 mg/kg single i.v. bolus) was 0.000347 s⁻¹ and the half-life ([1]; 18 mg/kg single i.v. bolus) was 67.8 ± 23.4 min. The “Brain damage (total infarct volume) compared with vehicle” value ([2]; 1.5 mg/kg and 2.5 mg/kg i.v.) was “significantly reduced brain damage”, the “Edema volume compared with vehicle” value ([2]; 1.5 mg/kg and 2.5 mg/kg i.v.) was “reduced” and the “Brain damage (total infarct volume) compared with vehicle” value ([2]; 4 mg/kg i.v.) was “not at 4 mg/kg”.
